# System: rat cytochrome P450 3A
# Details: for % inhibition of cyclosporine metabolism, 0.0001% (Table 2) / % inhibition of cyclosporine metabolism, repeat 0.0001(SD) (Table 2): oil ingredient 0.0001 wt. %; for % inhibition of cyclosporine metabolism, 0.0001% (Table 2) / % inhibition of cyclosporine metabolism, 0.001% (Table 2) / % inhibition of cyclosporine metabolism, 0.01% (Table 2): from solvent baseline; for % inhibition of cyclosporine metabolism, 0.001% (Table 2): oil ingredient 0.001 wt. %; for % inhibition of cyclosporine metabolism, 0.01% (Table 2): oil ingredient 0.01 wt. %; for % inhibition of cyclosporine metabolism, repeat 0.0001(SD) (Table 2): repeat assay(s), SD in parentheses
Structure (SMILES),"% inhibition of cyclosporine metabolism, 0.0001% (Table 2) [%]","% inhibition of cyclosporine metabolism, 0.001% (Table 2) [%]","% inhibition of cyclosporine metabolism, 0.01% (Table 2) [%]",other results
"CC/C=C\CC1=C(C)CCC1=O [Jasmone, cis-, 3-Methyl-2-(2-pentenyl)-2-cyclopenten-1-one]",16.0,68,–,–
"CC1(C)[C@H]2CC[C@](C)(C2)[C@H]1O [Fenchol-(1R)-endo-(+), 1,3,3-Trimethylbicyclo [2.2.1] heptan-2-ol]",18,74,100,–
"CC=C(C)C=CC=C(C)C [Allo Ocimene, 2,6-Dimethyl-2,4,6-octatriene]",6,22,–,–
"O=C/C=C/c1ccccc1 [Cinnamic Aldehyde, trans-, 3-Phenylpropenaldehyde]",–,29.0,78,–
"C=CCc1ccc(OC)cc1 [Estragole, 4-Allylanisole]",7,69.2,100,–
"CCOC(=O)/C=C/c1ccccc1 [Ethyl Cinnamate, trans-, Ethyl 3-phenylpropenoic acid]",-13,-16,–,–
"C=C(C)[C@@H]1CC=C(C)CC1 [Limonene-(S)-(-), p-Mentha-1,8-diene]",–,30,82.3,–
"C=CC(C)(O)CCC=C(C)C (racemic) [Linalool-(±), 3,7-Dimethyl-1,6-octadien-3-ol]",41,72.0,85,"% inhibition of cyclosporine metabolism, repeat 0.0001(SD) (Table 2): -7(9) %"
"C=C1CC/C=C(\C)CC[C@@H]2[C@@H]1CC2(C)C [Caryophyllene, trans-(-), β Caryophyllene]",26,85,–,–
"O=C(/C=C/c1ccccc1)OCc1ccccc1 [Benzyl Cinnamate, Benzyl 3-phenylpropenoic acid]",7,-45,–,–
"COC(=O)c1ccccc1N [Mcthyl Anthranilate, Methyl 2-aminobenzoate]",-7,23,–,–
"CC(C)=CCC/C(C)=C/CC/C(C)=C/CO [Farnesol. trans-, trans-, 3,7,11-Trimethyl-2,6,10-dodecatrien-1-ol]",49,82,–,–
"C=C1CC[C@H]2C[C@@H]1C2(C)C [Pinene-(1S)-(-)-β, 6,6-Dimethyl-2-methylenebicyclo[3.1.1]heptane]",-10,60,88,–
"C/C=C/c1ccc(OC)cc1 [Anethole, trans-, 4-Propenylanisole]",–,53,100,–
"Cc1ccc(C(C)C)cc1O [Carvacrol, 5-isoPropyl-2-methylphenol]",11,93,97,–
"CCC=CCC1C(=O)CCC1CC(=O)OC (racemic) [Methyl Jasmonate-(±), Methyl-3-oxo-2-(2-pentenyl)-cyclopentane acetate]",-27,65,–,–
"C=C(C)[C@H]1CC=C(C)C(=O)C1 [Carvone-(S)-(+), p-Mentha-6,8-dien-2-one]",30,70.5,–,–
"C=C(C)[C@H]1CC=C(C)CC1 [Limonene-(R)-(+), p-Mentha-1,8-diene]",–,20,84,–
"CC(C)=CCCC(C)CCO (stereo not drawn) [Citronellol-(DL)-(β), 3,7-Dimethyl-6-octen-1-ol]",41,86,95,"% inhibition of cyclosporine metabolism, repeat 0.0001(SD) (Table 2): 35(4) %"

Structure (SMILES),"% inhibition of cyclosporine metabolism, 0.0001% (Table 2) [%]","% inhibition of cyclosporine metabolism, 0.001% (Table 2) [%]","% inhibition of cyclosporine metabolism, 0.01% (Table 2) [%]",other results
"CC1=CCC(C(C)(C)O)CC1 (stereo not drawn) [Terpineol-α, p-Menth-1-en-8-ol]",13.4,86,100,–
"CC1(C)C(=O)[C@]2(C)CC[C@H]1C2 [Fenchone-(1R)-(-), 1,3,3-Trimethylbicyclo [2.2.1] heptan-2-one]",14,38,–,–
"C=C(C)C1CC=C(C)C(O)C1 (single isomer, unassigned) [Carveol-(-), p-Mentha-6,8-dien-2-ot]",2,60,–,–
"CC1=CC=C(C(C)C)CC1 [Terpinene-α, p-Mentha-1,3-diene]",-6,28,–,–
"CCOc1cc(C=O)ccc1O [Ethyl Vanillin, 3-Ethoxy-4-hydroxybenzaledhyde]",–,–,58,–
"COc1cc(CNC(=O)CCCC/C=C/C(C)C)ccc1O [Capsaicin, trans-8-Methyl-N-vanillyl-6 nonenamide]",27,68,–,–
"CC(=O)N1CCN(c2ccc(OCC3COC(Cn4ccnc4)(c4ccc(Cl)cc4Cl)O3)cc2)CC1 (stereo not drawn) [Ketoconazole, reference compound]",–,–,–,"% inhibition of cyclosporine metabolism, reference compound at 0.000001% (Table 3) (0.000001 %): 8%; % inhibition of cyclosporine metabolism, reference compound at 0.000005% (Table 3) (0.000005 %): 20%; % inhibition of cyclosporine metabolism, reference compound at 0.00001% (Table 3) (0.00001 %): 42%; % inhibition of cyclosporine metabolism, reference compound at 0.00005% (Table 3) (0.00005 %): 100%"
"C=CC(C)(CCC=C(C)C)OC(C)=O (stereo not drawn) [Linalyl Acetate, 3,7-Dimethyl-1,6-octadien-3-yl acetate]",–,55.8,100,–
"CC1=CCC(O)(C(C)C)CC1 (stereo not drawn) [Terpinen-4-ol, p-Menth-1-en-4-ol]",3.81,80,100,–
"C=C(C)[C@@H]1CC=C(C)C(=O)C1 [Carvone-(R)-(-), p-Mentha-6,8-dien-2-one]",27,69,100,–
"CC12CCC(CC1=O)C2(C)C (racemic) [Camphor-(±), 1,7,7-Trimethylbicyclo [2.2.1] heptan-2-one]",–,–,–,"% inhibition of cyclosporine metabolism, repeat 0.001 (SD) (Table 2) (microsomes): 53(3) %"
"C=CC(=C)CCC=C(C)C [Myrcene-β, 7-Methyl-3-methylene-1,6-octadiene]",0,13,–,–
"C=C1C2CCC(C2)C1(C)C (single isomer, unassigned) [Camphene-(+), 2,2-Dimethyl-3-methylenebicyclo[2.2.1]heptane]",-49,12.4,–,–
CC(C)=CCC/C(C)=C/C=O [Citral],44,54,99,–
"CC(C)=C1CC[C@@H](C)CC1=O [Pulegone-(R)-(+), p-Menth-4(8)-en-3-one]",-17,31,–,–
"CC(C)[C@@H]1CC[C@@H](C)CC1=O [Menthone-(-), p-Menthan-3-one]",14,52,–,–
"C=CCc1ccc(O)c(OC)c1 [Eugenol, 4-Allyl-2-methoxyphenol]",9.8,66,100,–
"CC(=O)OC/C=C(\C)CCC=C(C)C [Geranyl Acetate, trans-3,7-Dimethyl-2,6-octadien-1-yl acetate]",–,51.5,73,–
